Where two headings read alike, the source gives them in different places.
Columns and labels:
U87MG spheroids = experiment: Antiproliferative activity, 3D spheroids, CellTiter-Glo 3D assay; type: cell-based, human; details: for PI (phototoxicity index) 3D: IC50 dark / IC50 420 nm irradiated; for IC50: U87MG 3D spheroids, 90 min treatment, CellTiter-Glo 3D; for TMI (3D/2D): ratio of IC50 for 3D and 2D models under irradiation
Protocol: The antiproliferative activity of the compounds under investigation was assessed using the Sulforhodamine B (SRB) assay on both 2D cell monolayers and 3D spheroids. For the 2D cell monolayer assay, cells were seeded in 96-well tissue culture plates at a density of 3 × 10^3 cells/well in 100 μL of culture medium. Following overnight incubation in a humidified CO2 incubator, the medium was replaced, and the cells were treated with the investigated compounds in a final volume of 200 μL/well of Earle’s Balanced Salt Solution (EBSS). The cells were then exposed to the tested compounds for 1.5 h under dark conditions (5% CO2, 37 °C) and subsequently irradiated with blue light (420 nm) for 30 min at an intensity of 58 W/m^2. After treatment, the samples were washed with Phosphate-Buffered Saline (PBS) and replenished with 200 μL of culture medium. Following an additional 70-h incubation, the cells were washed with PBS, fixed with trichloroacetic acid at 4 °C for 1 h, and stained with 0.4% SRB dye for 30 min. The stained cells were dissolved with Tris (10 mM), and the cell viability was assessed by measuring the absorbance at 570 nm using an Absorbance Reader (SPARK TECAN, SCHOELLER). The absorbance readings were then converted to the percentage of control (% cell survival), and the antiproliferative effects were expressed as IC50 values, which were calculated from curves plotting cell survival (%) versus drug concentration (μM) (IC50 = the concentration of the agent that inhibits cell growth by 50%). For experiments with 3D spheroids, 2500 single cells/well were seeded on ultralow attachment U-shape 96-well plates (Corning, USA) and cultured for 72 h in 3D forming medium DMEM-F12 ham medium supplemented with growth and spheroid forming factors: 2% B27 (Thermo Fisher Scientific Inc., MA, USA), epidermal growth factor (EGF; Sigma-Aldrich, Germany, 20 ng mL^–1), fibroblast growth factor (FGF2; Sigma-Aldrich, Germany, 10 ng mL^–1), and BSA (0.15%). After the 72-h spheroid formation period, the samples were treated and irradiated as described for the 2D cultures. Subsequently, the samples were cultured in the 3D forming medium for an additional 70 h, and the antiproliferative potency of the tested compounds against spheroids was determined by assessing changes in IC50 values using the CellTiterGlo-3D assay (Promega). The luminescence signal was detected using the plate reader SPARK (Tecan, Manedorf, Switzerland), and the IC50 values were calculated from the survival curves. All experiments were conducted in triplicate to ensure the reliability and reproducibility of the results. Furthermore, the concentrations of the compounds in the medium during the treatment were verified using Flame Atomic Absorption Spectroscopy (FAAS) or Inductively Coupled Plasma Mass Spectrometry (ICP-MS).
The antiproliferative activity (IC50 valuesa) of the investigated compounds determined in 2D and 3D models of U87MG cellsb
Dark Irradiated PId Dark Irradiated PIe (3D/2D) […]
a Concentration that causes 50% inhibition of cell proliferation. b Cell monolayer or generated 3D spheroids were treated for 90 min with increasing concentrations of the investigated compounds, followed by 30 min of irradiation with blue light (420 nm; 58 Wm-2) and 70 h of drug-free incubation. c IC50 values were determined by SRB assay. d IC50 values were determined by CellTiter-Glo® 3D chemiluminescent assay. e PI - phototoxicity index was calculated as the ratio of IC50 determined under the dark conditions / IC50 determined for 420 […]
f TMI – tissue-mass index was calculated as the ratio of IC50 values determined for 3D and 2D models under irradiation conditions.

U87MG cells = experiment: Antiproliferative activity, 2D monolayer, SRB assay; type: cell-based, human; details: for PI (phototoxicity index) 2D: IC50 dark / IC50 420 nm irradiated; for IC50: U87MG 2D monolayer, 90 min treatment, SRB
Protocol: The antiproliferative activity of the compounds under investigation was assessed using the Sulforhodamine B (SRB) assay on both 2D cell monolayers and 3D spheroids. For the 2D cell monolayer assay, cells were seeded in 96-well tissue culture plates at a density of 3 × 10^3 cells/well in 100 μL of culture medium. Following overnight incubation in a humidified CO2 incubator, the medium was replaced, and the cells were treated with the investigated compounds in a final volume of 200 μL/well of Earle’s Balanced Salt Solution (EBSS). The cells were then exposed to the tested compounds for 1.5 h under dark conditions (5% CO2, 37 °C) and subsequently irradiated with blue light (420 nm) for 30 min at an intensity of 58 W/m^2. After treatment, the samples were washed with Phosphate-Buffered Saline (PBS) and replenished with 200 μL of culture medium. Following an additional 70-h incubation, the cells were washed with PBS, fixed with trichloroacetic acid at 4 °C for 1 h, and stained with 0.4% SRB dye for 30 min. The stained cells were dissolved with Tris (10 mM), and the cell viability was assessed by measuring the absorbance at 570 nm using an Absorbance Reader (SPARK TECAN, SCHOELLER). […] After the 72-h spheroid formation period, the samples were treated and irradiated as described for the 2D cultures. […] The luminescence signal was detected using the plate reader SPARK (Tecan, Manedorf, Switzerland), and the IC50 values were calculated from the survival curves. All experiments were conducted in triplicate to ensure the reliability and reproducibility of the results. Furthermore, the concentrations of the compounds in the medium during the treatment were verified using Flame Atomic Absorption Spectroscopy (FAAS) or Inductively Coupled Plasma Mass Spectrometry (ICP-MS). […]
drug-free incubation. c IC50 values were determined by SRB assay. d IC50 values were determined by CellTiter-Glo® 3D chemiluminescent assay. e PI - phototoxicity index was calculated as the ratio of IC50 determined under the dark conditions / IC50 determined for 420 […]
models under irradiation conditions.

[1] = dark, 70 h drug-free, read-out: IC50 3D Dark
[2] = 30 min blue light 420 nm 58 W m-2, 70 h drug-free, read-out: IC50 3D Irradiated
[3] = dark, 70 h drug-free incubation, read-out: IC50 2D Dark
[4] = 30 min blue light 420 nm 58 W m-2, 70 h drug-free, read-out: IC50 2D Irradiated

SMILES: Cc1ccc(-c2cc3[n+]4c(c2)-c2cccc[n+]2[Ir-3]42([Cl])([c]4cc5ccccc5cc4-c4n(Cc5ccc(C(F)(F)F)cc5)c5ccccc5[n+]42)[n+]2ccccc2-3)cc1.F[P-](F)(F)(F)(F)F [Ir3]
- PI (phototoxicity index) 3D (U87MG spheroids): 6.1
- IC50 (U87MG spheroids; [1]): 36.6 ± 4.5 µM
- IC50 (U87MG spheroids; [2]): 6 ± 1 µM
- TMI (3D/2D) (U87MG spheroids): 9.0
- PI (phototoxicity index) 2D (U87MG cells): 45
- IC50 (U87MG cells; [3]): 30.4 ± 4.3 µM
- IC50 (U87MG cells; [4]): 0.67 ± 0.08 µM

SMILES: CCCCn1c2[n+](c3cc(C(=O)OC)ccc31)[Ir-3]13([Cl])([c]4ccccc4-2)[n+]2ccccc2-c2cc(-c4ccc(C)cc4)cc([n+]21)-c1cccc[n+]13.F[P-](F)(F)(F)(F)F [Ir4]
- PI (phototoxicity index) 3D (U87MG spheroids): 13.1
- IC50 (U87MG spheroids; [1]): 27.6 ± 4 µM
- IC50 (U87MG spheroids; [2]): 2.1 ± 0.2 µM
- TMI (3D/2D) (U87MG spheroids): 4
- PI (phototoxicity index) 2D (U87MG cells): 41
- IC50 (U87MG cells; [3]): 21.3 ± 1.4 µM
- IC50 (U87MG cells; [4]): 0.52 ± 0.08 µM

SMILES: Cc1ccc(-c2cc3[n+]4c(c2)-c2cccc[n+]2[Ir-3]42([Cl])([c]4c(ccc5c4OCO5)-c4n(Cc5ccc(C(F)(F)F)cc5)c5ccccc5[n+]42)[n+]2ccccc2-3)cc1.F[P-](F)(F)(F)(F)F [Ir5]
- PI (phototoxicity index) 3D (U87MG spheroids): 4.5
- IC50 (U87MG spheroids; [1]): 32.3 ± 3.3 µM
- IC50 (U87MG spheroids; [2]): 7.1 ± 0.8 µM
- TMI (3D/2D) (U87MG spheroids): 16.9
- PI (phototoxicity index) 2D (U87MG cells): 60
- IC50 (U87MG cells; [3]): 25.3 ± 2.1 µM
- IC50 (U87MG cells; [4]): 0.42 ± 0.03 µM

SMILES: Cn1nnc2c(C(N)=O)ncn2c1=O [Temozolomide, reference compound]
- IC50 (U87MG spheroids; Homo sapiens, U-87 MG, light or radiation study, 30 min blue light 420 nm 58 W m-2, 70 h drug-free, read-out: IC50 3D Irradiated): 95.3 ± 6.4 µM
- IC50 (U87MG spheroids; Homo sapiens, U-87 MG, dark, 70 h drug-free, read-out: IC50 3D Dark): ≥ 100 µM
- IC50 (U87MG cells; Homo sapiens, U-87 MG, dark, 70 h drug-free incubation, read-out: IC50 2D Dark): ≥ 100 µM
